As a reminder, the EC50 is the concentration at which the effect is half-maximal. By solubility is commonly meant the concentration that dissolves in the medium under given conditions. Low readings indicate a poorly soluble substance, high ones a readily soluble substance.

Molecules are shown by their SMILES. In brackets after ≈: the same amount, converted by molar mass. Activity calls are given as the source filed them. The calls are words filed in the database; no cut-off is given here.

The target of series [1] is T1, Bile acid receptor (Homo sapiens) (UniProt Q96RI1).
T1 sequence (whole entry): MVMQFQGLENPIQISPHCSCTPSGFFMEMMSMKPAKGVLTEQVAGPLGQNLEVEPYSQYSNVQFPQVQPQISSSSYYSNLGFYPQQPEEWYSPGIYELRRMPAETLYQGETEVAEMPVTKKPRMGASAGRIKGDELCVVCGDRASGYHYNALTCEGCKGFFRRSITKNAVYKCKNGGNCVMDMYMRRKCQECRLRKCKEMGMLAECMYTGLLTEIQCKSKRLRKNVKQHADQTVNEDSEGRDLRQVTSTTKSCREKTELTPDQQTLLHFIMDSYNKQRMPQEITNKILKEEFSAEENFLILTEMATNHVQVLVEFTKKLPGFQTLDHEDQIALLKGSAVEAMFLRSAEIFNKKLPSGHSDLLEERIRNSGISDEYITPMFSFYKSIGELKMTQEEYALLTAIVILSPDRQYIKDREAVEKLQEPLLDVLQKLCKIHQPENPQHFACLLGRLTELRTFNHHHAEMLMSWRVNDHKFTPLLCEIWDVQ
The experiment in a line: Activation of human FXR LBD expressed in HEK293T cells assessed as induction of receptor activation at 1 uM incubated for 12 to 14 hrs by luciferase reporter gene assay relative to GW4064. Conditions: HEK-293T. It is filed as cell-based. In general terms: A reporter such as luciferase makes a cellular process visible.

Series [2] deals with T2, Peroxisome proliferator-activated receptor delta (Homo sapiens, UniProt Q03181).
T2 sequence (Q03181 whole entry): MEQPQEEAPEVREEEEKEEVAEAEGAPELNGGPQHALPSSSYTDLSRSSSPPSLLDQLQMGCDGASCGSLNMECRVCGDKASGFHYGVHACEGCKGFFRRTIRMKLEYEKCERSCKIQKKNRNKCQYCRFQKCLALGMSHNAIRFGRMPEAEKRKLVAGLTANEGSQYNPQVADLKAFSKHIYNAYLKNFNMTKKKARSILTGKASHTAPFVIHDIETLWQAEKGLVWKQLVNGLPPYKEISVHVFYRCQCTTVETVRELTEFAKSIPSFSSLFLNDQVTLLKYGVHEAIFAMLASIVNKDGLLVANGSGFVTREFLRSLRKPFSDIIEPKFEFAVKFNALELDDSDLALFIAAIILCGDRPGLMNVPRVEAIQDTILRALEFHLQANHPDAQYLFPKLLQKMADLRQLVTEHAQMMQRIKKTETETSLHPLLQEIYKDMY
The experiment in a line: Activation of human PPAR-delta LBD expressed in HEK293T cells assessed as induction of receptor activation incubated for 12 to 14 hrs by luciferase reporter gene assay. It is filed as cell-based, HEK-293T.

Series [3] deals with T1, Bile acid receptor (Homo sapiens). Put plainly: Activation of human FXR LBD expressed in HEK293T cells assessed as induction of receptor activation at 10 uM incubated for 12 to 14 hrs by luciferase reporter gene assay. Conditions: HEK-293T. In kind it is cell-based.
For series [4], the target named is T3, Peroxisome proliferator-activated receptor delta (Homo sapiens) (UniProt Q03181).
T3 sequence (whole entry): T2 sequence (Q03181 whole entry)
Put plainly: Activation of human PPAR-delta LBD expressed in HEK293T cells assessed as induction of receptor activation at 10 uM incubated for 12 to 14 hrs by luciferase reporter gene assay. Conditions: HEK-293T. It is filed as cell-based.

Series [5] concerns the target T4, Peroxisome proliferator-activated receptor gamma (Homo sapiens) (UniProt P37231).
T4 sequence (whole entry): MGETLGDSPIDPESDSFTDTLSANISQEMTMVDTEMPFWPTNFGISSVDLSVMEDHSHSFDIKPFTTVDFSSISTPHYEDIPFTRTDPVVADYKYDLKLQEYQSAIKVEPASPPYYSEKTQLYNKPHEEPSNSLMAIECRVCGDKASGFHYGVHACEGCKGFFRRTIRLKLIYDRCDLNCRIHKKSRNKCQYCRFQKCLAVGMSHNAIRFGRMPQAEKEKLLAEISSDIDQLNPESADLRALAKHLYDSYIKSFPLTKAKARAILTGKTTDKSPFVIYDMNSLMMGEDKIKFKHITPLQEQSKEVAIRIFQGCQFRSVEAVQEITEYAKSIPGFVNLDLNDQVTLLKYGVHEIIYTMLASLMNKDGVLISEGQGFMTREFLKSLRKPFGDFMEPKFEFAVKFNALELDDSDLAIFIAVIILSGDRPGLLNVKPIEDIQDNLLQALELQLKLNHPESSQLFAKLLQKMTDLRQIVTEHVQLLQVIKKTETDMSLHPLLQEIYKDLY
Put plainly: Activation of human PPAR-gamma LBD expressed in HEK293T cells assessed as induction of receptor activation at 10 uM incubated for 12 to 14 hrs by luciferase reporter gene assay. In kind it is cell-based. Conditions: HEK-293T.

The target in series [6] is T1, Bile acid receptor (Homo sapiens). Put plainly: Activation of human FXR LBD expressed in HEK293T cells assessed as induction of receptor activation at 1 to 3 uM incubated for 12 to 14 hrs by luciferase reporter gene assay. Conditions: HEK-293T. It is filed as cell-based.
In series [7] the target is T5, Peroxisome proliferator-activated receptor delta (Mus musculus) (UniProt P35396).
T5 sequence (whole entry): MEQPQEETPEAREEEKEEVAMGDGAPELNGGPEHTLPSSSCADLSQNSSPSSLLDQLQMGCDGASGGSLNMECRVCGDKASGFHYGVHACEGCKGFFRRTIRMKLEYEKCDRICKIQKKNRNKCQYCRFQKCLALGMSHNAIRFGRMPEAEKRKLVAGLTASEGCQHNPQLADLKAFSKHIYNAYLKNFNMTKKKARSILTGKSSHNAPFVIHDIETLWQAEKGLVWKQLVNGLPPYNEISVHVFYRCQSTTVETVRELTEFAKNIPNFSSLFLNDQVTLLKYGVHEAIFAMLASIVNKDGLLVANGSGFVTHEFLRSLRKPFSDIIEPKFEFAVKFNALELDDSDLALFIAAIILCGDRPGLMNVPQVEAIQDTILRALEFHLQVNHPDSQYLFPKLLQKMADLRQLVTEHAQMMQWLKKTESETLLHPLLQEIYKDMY
Put plainly: Activation of PPARD in mouse C2C12 cells assessed as increase PCK mRNA expression at 3 uM incubated for 8 hrs by quantitative real time PCR analysis. It is filed as cell-based. In general terms: Quantitative PCR measures a nucleic acid by following its amplification.

A short description of series [8]: Aqueous solubility in pH 8 buffer by HPLC analysis. It is filed as physicochemical.
Series [9] can be described thus: Stability in Sprague-Dawley rat liver microsomes assessed as remaining parent compound level at 10 uM presence of NADPH regenerating system by HPLC analysis. It is filed as ADME, Microsome. Conditions: read-out: Stability.

For the compound `CC(C)c1onc(-c2c(Cl)cccc2Cl)c1COc1ccc(CNc2ccc(CC(=O)O)cc2)c(Cl)c1`, in series [1], the %max was 31%. In addition, the EC50 in series [2] turned out to be 1.5 µM. For the same compound, the result in series [3], in series [4], in series [6] and in [7] was Active. Also, in series [5], the outcome was inactive. This compound also displayed a solubility in [8] of 159 µg/mL (≈ 284 µM). Besides, the remaining at 10 µM in series [9] was 48%.
